According to US20230000950A1, “COMPOSITION COMPRISING GLUCAGON AND GLP-1 AND GIP RECEPTOR DUAL AGONIST AND THERAPEUTIC USE OF SAME” (HANMI PHARM. CO., LTD., priority 2019, published 2023):

T1: human GIP receptor (Homo sapiens, UniProt P48546)
T1 construct: expressed in transfected cells; host or cells: CHO DG44
T1 sequence (P48546 22-466): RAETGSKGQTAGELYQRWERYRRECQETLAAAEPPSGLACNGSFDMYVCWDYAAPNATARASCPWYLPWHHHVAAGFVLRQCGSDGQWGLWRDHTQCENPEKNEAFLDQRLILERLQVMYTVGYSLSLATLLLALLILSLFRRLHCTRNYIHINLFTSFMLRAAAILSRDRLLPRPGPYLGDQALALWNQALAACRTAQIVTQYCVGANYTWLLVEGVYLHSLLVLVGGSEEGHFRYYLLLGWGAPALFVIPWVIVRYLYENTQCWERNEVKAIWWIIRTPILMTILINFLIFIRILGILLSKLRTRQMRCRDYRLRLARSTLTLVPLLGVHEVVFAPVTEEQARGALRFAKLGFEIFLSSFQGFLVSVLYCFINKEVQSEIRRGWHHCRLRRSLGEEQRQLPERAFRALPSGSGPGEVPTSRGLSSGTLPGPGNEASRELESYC

T2: human GIP receptor (human, UniProt P48546 22-466)
T2 sequence (looked up): T1 sequence (P48546 22-466)

B1: tirzepatide (peptide)
peptide: YXEGTFTSDYSIXLDKIAQKAFVQWLIAGGPSSGAPPPS
modifications: not fully specified; X at positions 2 and 13 = 2-methylalanine (Aib); Lys 20 N6-[(22S)-22,42-dicarboxy-10,19,24-trioxo-3,6,12,15-tetraoxa-9,18,23-triazadotetracontan-1-oyl]; C-terminal serinamide

Legend:
[1] = tested on: high-fat diet-induced obese mouse; experiment: High-fat diet-induced obese mice: body weight, fat weight, blood lipids, HOMA-IR, energy metabolism-related gene expression; assay type: in vivo; conditions: 21 days, subcutaneous; long-acting glucagon derivative 2.0 nmol/kg once every two days, tirzepatide 20 nmol/kg once every two days, Saxenda 50 nmol/kg twice a day
Experimental: A high-fat diet-induced obese mouse, which was widely used as an obese animal model, was used for this study. The body weight of the mice was about 50 g to 55 g before administration. During the study period, seven mice were housed and had free access to water. The lights were turned off from 6 P.M. to 6 A.M.
The administration was performed by subcutaneous injection in all cases.
The experiment was terminated on the 21st day, the changes in body weight of the mice corresponding to each group were measured every two days during the experiment. After the experiment was terminated, the fat weight, blood lipid levels, HOMA-IR, and energy metabolism-related gene expression in tissues were measured.

human GIP receptor [2] = biological target: T1, human GIP receptor; experiment: cAMP activity of dual agonist in cell line expressing human GIP receptor; assay type: cell-based; conditions: EC50 compared with native GIP, CHO DG44 cells
Description: (§1) and GIP A recombinant vector was constructed using the expression vector X0GC/dhfr so as to express human GLP-1 receptor and human GIP receptor, then transformed into CHO DG44 cells using lipofectamine, and selectively cultured in a selective medium containing G418 and methotrexate. From this, monoclonal cell lines were selected by limiting dilution. Among these, cell lines showing excellent concentration-dependent cAMP response to GLP-1 and GIP were finally selected.
(§2) In the cell lines expressing human GLP-1 receptor and human GIP receptor produced in Example 6, the activity of the dual agonist synthesized in Example 7 was measured.
(§3) Specifically, the transformed cell lines of Example 6 were subcultured 3 or 4 times a week, and then the subcultured cell lines were seeded in a 384-well plate by 6×10^3 per well and cultured for 24 hours. In HBSS (Hank's balanced salt solution) buffer containing 0.5 mM IBMX (3-isobutyl-1-methylxanthine), 0.1% BSA (bovine serum albumin), and 5 mM HEPES (4-(2-hydroxyethyl)-1-piperazineethanesulfonic acid), native GLP-1 and GIP were suspended at 200 nM and the dual agonist at 1600 nM, and then serially diluted 4-fold 10 times. This was applied to the cAMP assay kit (LANCE cAMP 384 kit, PerkinElmer) and added to each of the cultured cell lines, and then the fluorescence value was measured.

CD-HFD mouse model = experiment: CD-HFD (choline-deficient and high-fat, high-cholesterol diet) mouse model of NASH and fibrosis: NAS and liver collagen expression; assay type: in vivo; conditions: 6 weeks repeated administration Q2D subcutaneous, vs CD-HFD vehicle control
Description: In order to verify the efficacy on NASH and fibrosis improvement by combined administration of the long-acting glucagon derivative and GLP-1/GIP dual agonist (tirzepatide) according to the present invention prepared in Examples, a CD-HFD (choline-deficient and high-fat, high-cholesterol diet) mouse model was used.
Mice induced by 8-week CD-HFD were divided into a vehicle control group, a long-acting glucagon derivative (1.3 nmol/kg, Q2D, subcutaneous) administration group, a dual agonist (73 nmol/kg, Q2D, subcutaneous) administration group, and a long-acting glucagon derivative and dual agonist combined administration group, and repeated administration was performed for 6 weeks. As a negative control group, a group administered with a vehicle to normal diet mice was used. After 6 weeks of repeated administration, the liver tissue of each mouse was taken as an autopsy, and the efficacy on NASH and fibrosis improvement was evaluated by measuring NAS (NAFLD activity score) through H&E staining and collagen expression through quantitative PCR.
For the statistical processing in all the cases, the vehicle group (control group) and the test groups were compared using one-way ANOVA, and the t-test was used to compare the additional efficacy of the combined administration group with that of the single administration group (* to ** p<0.05 to 0.001 vs. vehicle control group).

human GLP-1 receptor [3] = biological target: T3, human GLP-1 receptor (Homo sapiens, UniProt P43220); experiment: cAMP activity of dual agonist in cell line expressing human GLP-1 receptor; assay type: cell-based; conditions: EC50 compared with native GLP-1, CHO DG44 cells
T3 construct: expressed in transfected cells; host or cells: CHO DG44
T3 sequence (P43220 24-463): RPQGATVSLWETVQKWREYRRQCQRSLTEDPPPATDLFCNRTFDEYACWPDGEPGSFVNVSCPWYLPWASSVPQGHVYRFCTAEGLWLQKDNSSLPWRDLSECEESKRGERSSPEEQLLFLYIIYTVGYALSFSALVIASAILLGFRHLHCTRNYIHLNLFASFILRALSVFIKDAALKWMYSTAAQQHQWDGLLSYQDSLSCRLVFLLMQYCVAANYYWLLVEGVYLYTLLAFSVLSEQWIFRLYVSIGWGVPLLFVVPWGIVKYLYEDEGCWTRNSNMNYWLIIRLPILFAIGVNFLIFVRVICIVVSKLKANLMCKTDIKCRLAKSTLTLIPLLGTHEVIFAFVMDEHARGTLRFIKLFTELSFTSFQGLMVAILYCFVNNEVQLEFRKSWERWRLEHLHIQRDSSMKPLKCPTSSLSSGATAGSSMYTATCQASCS
Description: as §1, §2, §3

human GIP receptor [4] = biological target: T2, human GIP receptor; experiment: cell-based or functional assay
human GLP-1 receptor [5] = biological target: human GLP-1 receptor (human, UniProt P43220 24-463); experiment: cell-based or functional assay

Molecule	change in body weight compared to before administration [1] [%]	Relative in vitro activity to native ligand (EC50), GIP receptor (human GIP receptor [2]) [%]	NAS (NAFLD activity score) (CD-HFD mouse model; long-acting glucagon derivative 1.3 nmol/kg, dual agonist 73 nmol/kg, H&E staining)	collagen expression in liver tissue (CD-HFD mouse model; quantitative PCR)	Relative in vitro activity to native ligand (EC50), GLP-1 receptor (human GLP-1 receptor [3]) [%]	Relative in vitro activity to native ligand (EC50), cAMP assay (human GIP receptor [4]) [%]	Relative in vitro activity to native ligand (EC50), cAMP assay (human GLP-1 receptor [5]) [%]
CC[C@H](C)[C@H](NC(=O)[C@H](CC(C)C)NC(=O)[C@H](Cc1c[nH]c2ccccc12)NC(=O)[C@H](CCC(N)=O)NC(=O)[C@@H](NC(=O)[C@H](Cc1ccccc1)NC(=O)[C@H](C)NC(=O)[C@H](CCCCNC(=O)COCCOCCNC(=O)COCCOCCNC(=O)CC[C@H](NC(=O)CCCCCCCCCCCCCCCCCCC(=O)O)C(=O)O)NC(=O)[C@H](CCC(N)=O)NC(=O)[C@H](C)NC(=O)[C@@H](NC(=O)[C@H](CCCCN)NC(=O)[C@H](CC(=O)O)NC(=O)[C@H](CC(C)C)NC(=O)C(C)(C)NC(=O)[C@@H](NC(=O)[C@H](CO)NC(=O)[C@H](Cc1ccc(O)cc1)NC(=O)[C@H](CC(=O)O)NC(=O)[C@H](CO)NC(=O)[C@@H](NC(=O)[C@H](Cc1ccccc1)NC(=O)[C@@H](NC(=O)CNC(=O)[C@H](CCC(=O)O)NC(=O)C(C)(C)NC(=O)[C@@H](N)Cc1ccc(O)cc1)[C@@H](C)O)[C@@H](C)O)[C@@H](C)CC)[C@@H](C)CC)C(C)C)C(=O)N[C@@H](C)C(=O)NCC(=O)NCC(=O)N1CCC[C@H]1C(=O)N[C@@H](CO)C(=O)N[C@@H](CO)C(=O)NCC(=O)N[C@@H](C)C(=O)N1CCC[C@H]1C(=O)N1CCC[C@H]1C(=O)N1CCC[C@H]1C(=O)N[C@@H](CO)C(N)=O [Dual agonist (tirzepatide)]	−19.39	6.7	significantly reduced	significantly reduced	1.3	–	–
B1	–	–	–	–	–	6.7	1.3
